In BindingDB's records for doi:10.1021/jm058205b (Johnson & Johnson Pharmaceutical, 2005):

Assays:
Experiment in all cases: Kinase Inhibition Assay
[1] = biological target: Cyclin-dependent kinase/G2/mitotic-specific cyclin- 1 (Homo sapiens, UniProt P06493)
Method: (§1) The enzyme was assayed with a biotinylated peptide substrate and test compounds in the presence of 5 uM ATP/[gamma-33P]ATP in a streptavidin coated FlashPlate (Perkin-Elmer, Boston, MA). Inhibition of the enzymatic activity due to the compound was measured by observing a reduced amount of 33P-gamma-ATP incorporated into the immobilized peptide relative to untreated controls. Linear regression analysis of the percent of inhibition by the test compound was used to calculate IC50 values.

[2] = biological target: Vascular endothelial growth factor receptor 2 (Rattus norvegicus, UniProt O08775)
Chain of Vascular endothelial growth factor receptor 2 (O08775 whole entry): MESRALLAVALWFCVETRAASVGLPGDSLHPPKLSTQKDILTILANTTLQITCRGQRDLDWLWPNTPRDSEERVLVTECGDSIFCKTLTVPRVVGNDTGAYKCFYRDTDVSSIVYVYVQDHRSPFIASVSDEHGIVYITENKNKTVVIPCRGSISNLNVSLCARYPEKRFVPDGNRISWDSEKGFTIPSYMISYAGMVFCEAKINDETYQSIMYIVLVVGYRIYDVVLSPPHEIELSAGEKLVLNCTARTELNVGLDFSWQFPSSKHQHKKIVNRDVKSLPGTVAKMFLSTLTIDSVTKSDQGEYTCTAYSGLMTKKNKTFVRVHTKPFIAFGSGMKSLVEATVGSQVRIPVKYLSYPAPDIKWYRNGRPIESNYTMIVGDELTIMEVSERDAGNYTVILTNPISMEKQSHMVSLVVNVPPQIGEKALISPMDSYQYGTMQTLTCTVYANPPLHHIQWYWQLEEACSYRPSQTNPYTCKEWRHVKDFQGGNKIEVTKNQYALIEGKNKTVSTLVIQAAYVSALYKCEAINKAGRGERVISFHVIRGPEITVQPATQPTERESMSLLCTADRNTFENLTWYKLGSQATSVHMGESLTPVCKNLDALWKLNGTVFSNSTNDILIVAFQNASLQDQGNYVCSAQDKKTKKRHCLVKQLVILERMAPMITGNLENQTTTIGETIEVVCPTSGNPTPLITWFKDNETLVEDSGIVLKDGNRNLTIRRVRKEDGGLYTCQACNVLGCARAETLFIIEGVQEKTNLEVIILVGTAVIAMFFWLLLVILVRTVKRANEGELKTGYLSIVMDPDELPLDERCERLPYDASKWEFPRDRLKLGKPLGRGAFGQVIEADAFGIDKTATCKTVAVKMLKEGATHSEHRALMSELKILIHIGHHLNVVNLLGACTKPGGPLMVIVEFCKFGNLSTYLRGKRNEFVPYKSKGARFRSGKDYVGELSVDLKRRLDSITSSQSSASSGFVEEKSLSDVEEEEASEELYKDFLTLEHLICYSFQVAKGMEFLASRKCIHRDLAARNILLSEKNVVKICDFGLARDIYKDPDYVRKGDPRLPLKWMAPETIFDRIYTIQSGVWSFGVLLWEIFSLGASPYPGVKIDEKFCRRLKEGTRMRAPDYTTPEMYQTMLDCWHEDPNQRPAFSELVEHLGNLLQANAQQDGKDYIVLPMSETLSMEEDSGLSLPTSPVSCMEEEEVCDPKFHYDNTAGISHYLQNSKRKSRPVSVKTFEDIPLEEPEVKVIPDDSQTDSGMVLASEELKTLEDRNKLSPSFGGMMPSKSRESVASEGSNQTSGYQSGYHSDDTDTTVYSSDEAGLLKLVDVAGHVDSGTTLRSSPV
Method: as §1

[3] = biological target: T1, Glycogen synthase kinase-3 beta [7-25] (Oryctolagus cuniculus, UniProt G1T8E2)
T1 construct: 7-25
Method: as §1

[4] = biological target: Platelet-derived growth factor receptor beta (Homo sapiens, UniProt P09619)
Chain of Platelet-derived growth factor receptor beta (P09619 whole entry): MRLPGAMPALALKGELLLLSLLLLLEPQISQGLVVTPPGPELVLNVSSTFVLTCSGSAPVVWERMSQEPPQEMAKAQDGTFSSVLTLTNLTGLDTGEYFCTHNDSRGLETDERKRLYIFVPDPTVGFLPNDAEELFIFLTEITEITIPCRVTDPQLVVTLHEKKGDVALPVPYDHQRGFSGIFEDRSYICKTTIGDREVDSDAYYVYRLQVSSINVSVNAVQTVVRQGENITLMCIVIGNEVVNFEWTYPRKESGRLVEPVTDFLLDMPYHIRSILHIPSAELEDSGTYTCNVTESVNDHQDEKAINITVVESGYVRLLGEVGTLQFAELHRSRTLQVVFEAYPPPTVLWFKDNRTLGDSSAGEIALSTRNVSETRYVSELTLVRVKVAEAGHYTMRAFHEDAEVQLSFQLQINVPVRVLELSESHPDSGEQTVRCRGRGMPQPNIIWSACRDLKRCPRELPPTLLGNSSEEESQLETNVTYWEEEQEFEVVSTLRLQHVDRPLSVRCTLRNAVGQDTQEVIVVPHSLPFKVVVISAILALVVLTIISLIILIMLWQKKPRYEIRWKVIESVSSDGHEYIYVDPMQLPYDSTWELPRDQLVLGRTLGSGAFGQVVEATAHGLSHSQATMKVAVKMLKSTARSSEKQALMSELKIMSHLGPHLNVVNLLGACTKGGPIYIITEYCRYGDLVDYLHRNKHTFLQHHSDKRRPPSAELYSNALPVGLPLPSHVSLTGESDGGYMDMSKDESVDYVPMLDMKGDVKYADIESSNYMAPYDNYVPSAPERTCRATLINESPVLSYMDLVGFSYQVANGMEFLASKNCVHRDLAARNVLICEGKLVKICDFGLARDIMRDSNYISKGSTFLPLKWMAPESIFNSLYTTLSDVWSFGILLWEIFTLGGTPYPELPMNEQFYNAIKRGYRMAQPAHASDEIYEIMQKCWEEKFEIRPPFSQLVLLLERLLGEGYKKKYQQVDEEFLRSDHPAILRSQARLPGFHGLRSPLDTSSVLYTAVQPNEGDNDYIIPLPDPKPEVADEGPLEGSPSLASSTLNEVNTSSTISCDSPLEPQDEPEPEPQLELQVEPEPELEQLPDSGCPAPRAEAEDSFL
Method: as §1

Chain of Cyclin-dependent kinase/G2/mitotic-specific cyclin- 1 (P06493 whole entry): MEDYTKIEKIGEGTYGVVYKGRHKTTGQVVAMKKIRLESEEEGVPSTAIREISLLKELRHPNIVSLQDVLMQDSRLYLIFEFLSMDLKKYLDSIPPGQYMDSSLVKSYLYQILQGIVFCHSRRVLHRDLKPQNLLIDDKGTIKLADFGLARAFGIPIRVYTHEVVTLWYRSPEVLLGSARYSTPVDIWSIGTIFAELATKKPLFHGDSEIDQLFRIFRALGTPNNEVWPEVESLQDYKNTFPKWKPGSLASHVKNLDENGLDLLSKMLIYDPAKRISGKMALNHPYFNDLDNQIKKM
Chain of Cyclin-dependent kinase/G2/mitotic-specific cyclin- 1 (P14635 whole entry, further chain): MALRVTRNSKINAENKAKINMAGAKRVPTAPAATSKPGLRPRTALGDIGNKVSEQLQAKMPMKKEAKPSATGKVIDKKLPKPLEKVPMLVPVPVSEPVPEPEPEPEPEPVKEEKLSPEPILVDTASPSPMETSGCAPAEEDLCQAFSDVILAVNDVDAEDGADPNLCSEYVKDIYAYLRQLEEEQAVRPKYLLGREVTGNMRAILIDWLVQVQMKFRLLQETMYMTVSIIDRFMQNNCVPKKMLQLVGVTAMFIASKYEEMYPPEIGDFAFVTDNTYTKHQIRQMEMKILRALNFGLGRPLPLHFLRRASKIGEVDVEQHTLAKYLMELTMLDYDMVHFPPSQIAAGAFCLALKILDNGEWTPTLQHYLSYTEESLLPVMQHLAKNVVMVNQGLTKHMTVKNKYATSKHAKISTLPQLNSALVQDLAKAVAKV

IC50 [1] [µM]	Compound	also measured
> 10	CN1CCN(CCCNc2cncc(-c3cncc(Nc4cccc(Cl)c4)n3)c2)CC1 [N-(3-chlorophenyl)-6-(5-{[3-(4-methylpiperazin-1-yl)propyl]amino}pyridin-3-yl)pyrazin-2-amine]	
> 10	CN(C)CCCNc1cncc(-c2cncc(Nc3cccc(Cl)c3)n2)c1 [N-(3-chlorophenyl)-6-(5-{[3-(dimethylamino)propyl]amino}pyridin-3-yl)pyrazin-2-amine]	
> 10	Clc1cccc(Nc2cncc(-c3cncc(NCCCc4ccccc4)c3)n2)c1 [N-(3-chlorophenyl)-6-{5-[(3-phenylpropyl)amino]pyridin-3-yl}pyrazin-2-amine]	
> 10	Clc1cccc(Nc2cncc(-c3cncc(NCC4CCOCC4)c3)n2)c1 [N-(3-chlorophenyl)-6-{5-[(oxan-4-ylmethyl)amino]pyridin-3-yl}pyrazin-2-amine]	
> 10	COCCC(=O)Nc1cncc(-c2cncc(Nc3cccc(Cl)c3)n2)c1 [N-(5-{6-[(3-chlorophenyl)amino]pyrazin-2-yl}pyridin-3-yl)-3-methoxypropanamide]	
> 10	CN(C)c1ccc(C(=O)Nc2cncc(-c3cncc(Nc4cccc(Cl)c4)n3)c2)cc1 [N-(5-{6-[(3-chlorophenyl)amino]pyrazin-2-yl}pyridin-3-yl)-4-(dimethylamino)benzamide]	IC50 [2]: > 10 µM
> 10	Clc1cccc(Nc2cncc(-c3cncc(NCCCN4CCOCC4)c3)n2)c1 [N-[5-[6-[(3-Chlorophenyl)amino]pyrazinyl]-3-pyridinyl]-4-morpholinepropanamine]	
> 10	O=C(COCc1ccccc1)Nc1cncc(-c2cncc(Nc3cccc(Cl)c3)n2)c1 [N-{5-[6-(3-Chloro-phenylamino)-pyrazin-2-yl]-pyridin-3-yl}-2-benzyloxy-acetamide]	
> 10	O=C(CO)Nc1cncc(-c2cncc(Nc3cccc(Cl)c3)n2)c1 [N-{5-[6-(3-Chloro-phenylamino)-pyrazin-2-yl]-pyridin-3-yl}-2-hydroxy-acetamide]	
> 10	COCC(=O)Nc1cncc(-c2cncc(Nc3cccc(Cl)c3)n2)c1 [N-{5-[6-(3-Chloro-phenylamino)-pyrazin-2-yl]-pyridin-3-yl}-2-methoxy-acetamide]	
> 10	CN(C)CCNc1cncc(-c2cncc(Nc3cccc(Cl)c3)n2)c1 [N-{5-[6-(3-Chloro-phenylamino)-pyrazin-2-yl]-pyridin-3-yl}-N ,N -dimethyl-ethane-1,2-diamine]	IC50 [3]: > 10 µM; IC50 [4]: > 10 µM

Further lines, the compound ahead of its results:

Compound	IC50 [1] [µM]	also measured
OCCNc1cncc(-c2cncc(Nc3cccc(Cl)c3)n2)c1 [2-{5-[6-(3-Chloro-phenylamino)-pyrazin-2-yl]-pyridin-3-ylamino}-ethanol]	> 10	
OCCCNc1cncc(-c2cncc(Oc3cccc(Cl)c3)n2)c1 [3-({5-[6-(3-chlorophenoxy)pyrazin-2-yl]pyridin-3-yl}amino)propan-1-ol]		IC50 ([1]; pH 8, 30 °C): > 10 µM
OCCCNc1cncc(-c2cncc(NCc3ccccc3)n2)c1 [3-[5-(6-Benzylamino-pyrazin-2-yl)-pyridin-3-yl-amino]-propan-1-ol]		IC50 ([1]; pH 8, 30 °C): > 10 µM
OCCCNc1cncc(-c2cncc(Nc3cccc(F)c3)n2)c1 [3-[(5-{6-[(3-fluorophenyl)amino]pyrazin-2-yl}pyridin-3-yl)amino]propan-1-ol]		IC50 ([1]; pH 8, 30 °C): > 10 µM
Nc1ncc(NCCCO)cc1-c1cncc(Nc2cccc(Cl)c2)n1 [3-[(6-amino-5-{6-[(3-chlorophenyl)amino]pyrazin-2-yl}pyridin-3-yl)amino]propan-1-ol]	> 10	
OCCCNc1cnc(Cl)c(-c2cncc(Nc3cccc(Cl)c3)n2)c1 [3-[(6-chloro-5-{6-[(3-chlorophenyl)amino]pyrazin-2-yl}pyridin-3-yl)amino]propan-1-ol]	> 10	
COc1cccc(Nc2cncc(-c3cncc(NCCCO)c3)n2)c1 [3-[[5-[6-[(3-Methoxyphenyl)amino]pyrazinyl]-3-pyridinyl]-1-propanol]		IC50 ([1]; pH 8, 30 °C): > 10 µM
OCCCNc1cncc(-c2cncc(Nc3cccc(Cl)c3)n2)c1 [3-[[5-[6-[(3-chlorophenyl)amino]pyrazinyl]-3-pyridinyl]amino]-1-propanol]	> 10	
OCCCNc1cncc(-c2cncc(Nc3ccccc3Cl)n2)c1 [3-{5-[6-(2-Chloro-phenylamino)-pyrazin-2-yl]-pyridin-3-ylamino}-propan-1-ol]		IC50 ([1]; pH 8, 30 °C): > 10 µM
OCCCNc1cnc(F)c(-c2cncc(Nc3cccc(Cl)c3)n2)c1 [3-{5-[6-(3-Chloro-phenylamino)-pyrazin-2-yl]-6-fluoropyridin-3-ylamino}-propan-1-ol]	> 10	
O=C(CCCNc1cncc(-c2cncc(Nc3cccc(Cl)c3)n2)c1)N1CCCCC1 [4-[(5-{6-[(3-chlorophenyl)amino]pyrazin-2-yl}pyridin-3-yl)amino]-1-(piperidin-1-yl)butan-1-one]	> 10	
OCCCCNc1cncc(-c2cncc(Nc3cccc(Cl)c3)n2)c1 [4-[(5-{6-[(3-chlorophenyl)amino]pyrazin-2-yl}pyridin-3-yl)amino]butan-1-ol]	> 10	
O=C(NCCCO)c1cncc(-c2cncc(Nc3cccc(Cl)c3)n2)c1 [5-[6-(3-Chloro-phenylamino)-pyrazin-2-yl]-N-(3-hydroxy-propyl)-nicotinamide]	> 10	
Clc1cccc(Nc2cncc(-c3cncc(NCCOc4ccccc4)c3)n2)c1 [(3-Chloro-phenyl)-{6-[5-(2-phenoxy-ethylamino)-pyridin-3-yl]-pyrazin-2-yl}-amine]	> 10	
Clc1ccc(Nc2cncc(-c3cncc(NCCCc4ccncc4)c3)n2)cc1 [(4-Chloro-phenyl)-{6-[5-(3-pyridin-4-yl-propylamino)pyridin-3-yl]-pyrazin-2-yl}-amine]		IC50 ([1]; pH 8, 30 °C): > 10 µM
Clc1ccc(Nc2cncc(-c3cncc(NCCCc4ccncc4)c3)n2)cc1Cl [N-(3,4-dichlorophenyl)-6-(5-{[3-(pyridin-4-yl)propyl]amino}pyridin-3-yl)pyrazin-2-amine]		IC50 ([1]; pH 8, 30 °C): > 10 µM
Clc1cccc(Nc2cncc(-c3cncc(NCCCn4cccn4)c3)n2)c1 [N-(3-Chlorophenyl)-6-[5-[[3-(1H-pyrazol-1-yl)propyl]-amino]-3-pyridinyl]-2-pyrazinamine]	> 10	
Clc1cccc(Nc2cncc(-c3cncc(NCCCn4cncn4)c3)n2)c1 [N-(3-chlorophenyl)-6-(5-{[3-(1H-1,2,4-triazol-1-yl)propyl]amino}pyridin-3-yl)pyrazin-2-amine]	> 10	
Clc1cccc(Nc2cncc(-c3cncc(NCCCc4ccncc4)c3)n2)c1 [N-(3-chlorophenyl)-6-(5-{[3-(pyridin-4-yl)propyl]amino}pyridin-3-yl)pyrazin-2-amine]		IC50 ([1]; pH 8, 30 °C): > 10 µM
O=C(COc1ccccc1)Nc1cncc(-c2cncc(Nc3cccc(Cl)c3)n2)c1 [N-{5-[6-(3-Chloro-phenylamino)-pyrazin-2-yl]-pyridin-3-yl}-2-phenoxy-acetamide]	> 10	
Nc1cncc(-c2cncc(Nc3cccc(Cl)c3)n2)c1 [[6-(5-Amino-pyridin-3-yl)-pyrazin-2-yl]-(3-chloro-phenyl)-amine]		IC50 ([1]; pH 8, 30 °C): > 10 µM
